Experimental data: patent US12029716B2, “Derivatives of korormicin useful as antibiotics” (Viotika Life Sciences Inc., priority 2015, dated 2024)
Converted amounts (≈) assume the structure as drawn. “Also recorded” adds a separate entry of the source. Like-named read-outs stand apart in the source and are kept apart here.

Key:
[1] = physchem; format: physicochemical; details: organic solvent or mixture
[2] = tested on: C. difficile ATCC 700057; experiment: Susceptibility test of Clostridium difficile growth; format: cell-based; details: 0.5 μM-50 μM
Experimental: Evaluation of a PEG-2S against Clostridium difficile (C. difficile ATCC 700057) was performed by Drop method on pre-reduced BAK plates according to Performance Standards for Antimicrobial Susceptibility Testing (Methods for Antimicrobial Susceptibility Testing of Anaerobic Bacteria; Approved Standard—Eighth Edition; Volume 32 Number 5, 2012).

[3] = tested on: Escherichia coli; experiment: Growth of free-living bacteria in liquid medium (OD600); details: 1.0 to 50 μM
[4] = tested on: Enterococcus faecalis; experiment: as above; details: 1.0 to 50 μM
[5] = tested on: Lactococcus lactis; experiment: as above; details: 1.0 to 50 μM
[6] = biological target: T1, Na^+-NQR (Vibrio cholerae serotype O1, UniProt Q9KPS2); experiment: Na+-NQR activity (dNADH oxidation) in sub-bacterial V. cholerae vesicles; format: biochemical
T1 construct: being placed in its native membrane; endogenous in cells; sub-bacterial membrane vesicles made by French press

[7] = tested on: HEK293 cells infected with C. trachomatis; experiment: Intracellular sodium in HEK293 cells infected with C. trachomatis; format: cell-based, human; details: 1 and 2.5 μM (low μM)
Experimental: (§1) pHrodo™ Green AM and CoroNa Green Sodium Indicator (both Molecular Probes, Invitrogen) were used to measure intracellular pH (pHi) and intracellular sodium (Na^+i) concentration. HEK293 cells were seeded on 24 well plates and infected with C. trachomatis after overnight incubation in DMEM with 5% FBS. After 2 hours of incubation with C. trachomatis cells were treated with different concentrations of PEG-2S and subjected to pHi and Na^+i measurement at different time points according to manufacturer's protocols. In all assessments calibration curves were performed prior to the experiments. Fluorescent inverted microscope (TE-2000s Nikon) was used to obtain images and mean intensity was quantified using NIS Elements imaging software (Nikon, Mississauga, ON).

[8] = tested on: HEK293 cells infected with C. trachomatis; experiment: Intracellular pH in HEK293 cells infected with C. trachomatis; format: cell-based, human
Experimental: as §1

[9] = tested on: primary Vascular Smooth Muscle cells; experiment: Cell toxicity / proliferation assay, primary vascular smooth muscle cells; format: cell-based, human
Experimental: (§2) Cell Toxicity Assay was performed as follows. HeLa, HEK293 and primary VSM cells were seeded at 5×10^3 cells/well in 96-well plates and incubated with Korormicin, PEG-2 or homoserine lactones in DMEM containing 1% fetal bovine serum (FBS; Invitrogen Corp.). After 48 hours, the number of living cells was determined by a colorimetric enzyme assay, based on a cytoplasmic enzyme activity present in viable cells.
Cells were seeded at 5×10^3 cells/well in 96-well plates and incubated with C. trachomatis in DMEM containing 1% fetal bovine serum (FBS; Invitrogen Corp.). After 48 hours, the number of living cells was determined by a colorimetric enzyme assay (CellTiter 96 Cell Proliferation Assay; Promega Corporation, Madison, WI) based on a cytoplasmic enzyme activity present in viable cells. (Cory et al. Use of an aqueous soluble tetrazolium/formazan assay for cell growth assays in culture. Cancer Commun. 1991; 3:207-212). The absorbance of a formazan product in tissue culture media was measured at 500 nm using a microplate reader.

[10] = tested on: Chlamydia trachomatis; experiment: C. trachomatis infection of HeLa cells (chlamydial inclusions, immunocytochemistry); format: cell-based; details: for MCC2, Minimal Chlamydicidal Concentration: after 2 passages with treatment
Experimental: Chlamydia trachomatis (C. trachomatis) propagation and treatment were carried out as follows. C. trachomatis was propagated in HeLa cells. The titer of C. trachomatis was determined in cyclohexamide-treated HeLa cells, and concentrations used were expressed as inclusion forming units (IFU) per mL.
Assessment of the level of infection was determined as follows. HeLa cells were seeded on glass coverslips in 24-well plates at 3×10^4 cells/well and inoculated with C. trachomatis and then treated with antibiotic (or other compounds of interest). After 48 hours, the infected cells were fixed with 100% methanol and then incubated with anti-Chlamydia monoclonal antibody. Inclusion bodies were visualized by staining with FITC-conjugated secondary antibody and DAPI as counterstaining. The samples were examined by a fluorescence microscopy. Number of inclusions was calculated per 100 cells.
Assessment of antichlamydial activity of Korormicin (Scheme shown in FIG. 1) and PEG-2 (Scheme shown in FIG. 2) were performed as follows. Cells were infected with C. trachomatis and treated with different concentrations of antibiotic of choice. After 48 h of C. trachomatis was collected (P1) and used to infect fresh cells. Subsequent collections of C. trachomatis were used to obtain P2, P3, P4 and P5 stocks of C. trachomatis. Dilution of C. trachomatis used to infect cells after treatment with PEG-2 had to be minimized in order to visualize inclusions. Last passage collection of C. trachomatis (P5) of Korormicin treatment and all collected of passages of C. trachomatis treated with PEG-2 were used to establish infectivity of treated Chlamydia (Scheme shown in FIG. 3).
For MIC50 (Minimal Concentration of the antibiotic that inhibits formation of chlamydial inclusions on 50%) determination HeLa cells were grown in 24-well or 96 well plates overnight prior to chlamydial inoculation. Elementary bodies were applied to the cells in small volume of SPG (0.22 M sucrose, 8.6 mM Na2HPO4, 3.8 mM KH2PO4, 5 mM glutamic acid, 0.2 μm-filtered, pH 7.4) and after 2 hours of incubation unattached elementary bodies were removed and infected cells were treated with different concentration of antibiotics in Dulbecco's modified Eagle's medium (DMEM, Invitrogen) with 5% fetal bovine serum (FBS, Invitrogen) in the presence of cycloheximide (1.0 μg/ml). After 42 h inclusions were visualized by immunocytochemistry.
To determent chlamydicidal effect of Korormicin (Scheme 1) and PEG-2 (Scheme 2) Hela cells were infected with C. trachomatis and treated with different concentrations of antibiotics. After 48 h of C. trachomatis was collected (P1) and used to infect fresh cells. Subsequent collections of C. trachomatis were used to obtain P2, P3, P4 and P5 stocks of C. trachomatis. Dilution of C. trachomatis used to infect cells after treatment with PEG-2 had to be minimized in order to visualize inclusions. (See Scheme 2 below). Last passage collection of C. trachomatis (P5) of Korormicin treatment and all collected of passages of C. trachomatis treated with PEG-2 were used to establish infectivity of treated C. trachomatis. Minimal chlamydicidal concentration (MCC2) for Korormicin, PEG-2 and PEG-2S was calculated after 2 passages of infection with treatment and reflect inhibition of infection for more than 90%. In all experiments inclusions were visualized by immunocytochemistry.
Cells were seeded on glass coverslips in 24-well plates (2-4×10^4 cells/well) or on glass-bottom 96 well plates (10^4 cells/well), and after overnight inoculated with C. trachomatis. After 42 hours, the infected cells were fixed with 90% acetone (or 100% methanol in case of 96 well plates) and then incubated with anti-Chlamydia antibody (Thermo Fisher Scientific). Alexa Fluor 488-conjugated anti-rabbit IgG (Molecular Probes) was used as secondary antibody. DAPI staining solution (300 nM) was added to the coverslips to identify nuclei. […]

[11] = tested on: HEK293 cells; experiment: Cell toxicity assay, HEK293 cells; format: cell-based, human; details: HEK293, concentrations of up to 50 μM
Experimental: as §2

[12] = tested on: HeLa cell line; experiment: Cell toxicity assay, HeLa cells; format: cell-based, human; details: HeLa, concentrations of up to 50 μM
Experimental: as §2

[13] = tested on: HeLa cells infected with C. trachomatis; experiment: Intracellular acidification of HeLa cells infected with C. trachomatis; format: cell-based, human
Description: The mechanism of action of PEG-2 was also investigated by monitoring intracellular acidification of infected cells treated with PEG-2. If PEG-2 is working through the inhibition of Na^+-NQR and a sodium motive force, then it would be expected to have an effect on intracellular Na^+ and H^+ concentrations within infected cells. HeLa cells were infected with C. trachomatis and intracellular acidification was monitored with fluorescent indicator dyes.

[14] = primary Vascular Smooth Muscle cells
[15] = inhibition of infection for more than 90%
[16] = read-out: MIC502, Minimal Inhibitory Concentration after the second treatment, second treatment

CCCCCCC/C=C/C=C\[C@H](O)CC(=O)NC1=C[C@](C)(CC)OC1=O [PEG-2S]
solubility [1]: < 25 mM
effect on growth [2]: does not affect the growth
effect on growth [3]: did not affect the growth
effect on growth [4]: did not affect the growth
effect on growth [5]: did not affect the growth
IC50 [6]: 1.76 nM
effect on intracellular sodium accumulation / changes of [Na+] [7]: sensitive; also recorded: prevents changes
internal pH of infected cells ([8]; 1.0 μM, within first 5 hours of infection): ~7.6
effect on chlamydia-induced acidification ([8]; 2.5 μM): prevented the chlamydia-induced acidification completely
effect on changes of cytoplasmic pH ([8]; 1 and 2.5 μM): prevents changes of cytoplasmic pH
toxicity to primary cells (in words) [9, 14]: low cytotoxicity
IC50 ([10]; Chlamydia trachomatis, HeLa, read-out: IC50(Chl), half-maximal inhibition of the proliferation of Chlamydia trachomatis, cell culture experimental model): 700 nM
MCC2, Minimal Chlamydicidal Concentration [10]: 0.36 µg/mL
MCC2, Minimal Chlamydicidal Concentration [10, 15]: 1.0 µM
MIC501, Minimal Inhibitory Concentration after the treatment ([10]; first treatment): 0.25 µg/mL (≈ 0.688 µM)
IC50 [10, 16]: 250 nM
MIC502, Minimal Inhibitory Concentration after the second treatment ([10]; second treatment): 0.09 µg/mL (≈ 0.248 µM)

CCCCCCC/C=C/C=C\[C@H](O)CC(=O)NC1=C[C@](C)(CC)OC1=O [PEG-2]
toxic effects [11]: no toxic effects
toxic effects [12]: no toxic effects
toxicity to primary cells (in words) [9, 14]: low cytotoxicity; also recorded: non-toxic
toxic effects ([9]; primary Vascular Smooth Muscle cells, concentrations of up to 50 μM): no toxic effects
toxic effects on primary cell cultures (VSMC) ([9]; up to 20 μM): no toxic effects
delay of the initial C. trachomatis-induced acidification [13]: at least 2 hours
effect on the following acidification [13]: diminishes the following acidification
efficacy against C. trachomatis infection (in words) [10]: effective
decrease of infectivity (number of chlamydial inclusions in the next passage) ([10]; 1st treatment, 15 μM): ~5 fold
number of inclusions, of control ([10]; 5 consecutive treatments, 15 μM): 0.01%
MCC2, Minimal Chlamydicidal Concentration [10]: 5.45 µg/mL
MCC2, Minimal Chlamydicidal Concentration [10, 15]: 15 µM
number of detectable inclusions lower ([10]; after 5 consecutive treatments, 15 μM): 10,000 times
MIC501, Minimal Inhibitory Concentration after the treatment ([10]; first treatment): 3.63 µg/mL (≈ 9.99 µM)
size of chlamydial inclusions ([10]; fluorescence microscopy): noticeably smaller
IC50 ([10]; read-out: MIC501, Minimal Inhibitory Concentration after the treatment, first treatment, 50% inhibition of inclusion formation): 10000 nM
IC50 [10, 16]: 4000 nM
MIC502, Minimal Inhibitory Concentration after the second treatment ([10]; second treatment): 1.45 µg/mL (≈ 3.99 µM)
